For one assay, the target named is IDH1 R132C (Homo sapiens (Human), UniProt O75874, R132C). The assay is described as follows: In vitro NADPH depletion assay for IDH1m R132C inhibitors. The format is biochemical. The following applies: IDH1 R132C enzyme, read-out: IDH R132C IC50. As to the method:
(§1) A test compound is prepared as 10 mM stock in DMSO and diluted to 50× final concentration in DMSO, for a 50 μl reaction mixture. IDH enzyme activity converting alpha-ketoglutarate to 2-hydroxyglutaric acid is measured using a NADPH depletion assay. In the assay the remaining cofactor is measured at the end of the reaction with the addition of a catalytic excess of diaphorase and resazurin, to generate a fluorescent signal in proportion to the amount of NADPH remaining. […] The reaction is started with the addition of 10 μl of Substrate Mix ([…], 5 mM alpha-ketoglutarate, in Assay Buffer) and the mixture is incubated for 90 minutes at room temperature.
The concentration of NADPH and alpha-ketoglutarate in the Substrate Buffer is 20 μM and 1 mM, respectively.
IDH1 R132H, sequence (O75874 whole entry R132H): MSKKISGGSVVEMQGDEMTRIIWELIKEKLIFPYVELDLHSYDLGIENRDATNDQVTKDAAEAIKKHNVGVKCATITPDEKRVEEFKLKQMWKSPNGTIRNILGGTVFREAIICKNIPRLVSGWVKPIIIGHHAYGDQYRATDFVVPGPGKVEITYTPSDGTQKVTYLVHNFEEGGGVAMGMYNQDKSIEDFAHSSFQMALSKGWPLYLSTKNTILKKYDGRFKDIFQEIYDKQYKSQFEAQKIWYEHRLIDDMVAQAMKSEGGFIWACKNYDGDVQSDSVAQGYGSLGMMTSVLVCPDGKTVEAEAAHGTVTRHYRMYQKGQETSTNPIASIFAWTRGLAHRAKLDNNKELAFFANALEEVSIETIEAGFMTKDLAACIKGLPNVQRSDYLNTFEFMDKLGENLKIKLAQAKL
IDH1 R132C, sequence (O75874 whole entry R132C): as the sequence (O75874 whole entry R132H) above, with H132C counted along it
The term IC50 denotes the concentration at which inhibition is half-maximal. With `O=C(NC1CC(F)(F)C1)[C@H](c1ccccc1Cl)N(C(=O)[C@@H]1CCC(=O)N1c1cccc(F)n1)c1cccc(F)c1` [Compound 11], the IC50 was in the range of 0.1 to 0.5 µM. For `O=C(NC1CC(F)(F)C1)[C@H](c1ccccc1Cl)N(C(=O)[C@@H]1CCC(=O)N1c1nccc2ccccc12)c1cccc(F)c1` [Compound 16], the IC50 is 0.1 to 0.5 µM.

The next assay concerns the target IDH1 R132H (Homo sapiens (Human), UniProt O75874, R132H). As to the kind of experiment: In vitro NADPH depletion assay for IDH1m R132H inhibitors. Particulars: IDH1 R132H enzyme, read-out: IDH R132H IC50. The format is biochemical. As to the method: as §1
`O=C(NC1CC(F)(F)C1)C(c1ccccc1Cl)N(C(=O)[C@@H]1CCC(=O)N1c1cccnc1)c1cccc(F)c1` (stereo partly shown) [Compound 10]: the IC50 is 0.1 to 0.5 µM. As to `O=C(NC1CC(F)(F)C1)[C@H](c1ccccc1Cl)N(C(=O)[C@@H]1CCC(=O)N1c1cccc(F)n1)c1cccc(F)c1` [Compound 11], the IC50 was 0.1 to 0.5 µM. For the compound `O=C(NC1CC(F)(F)C1)[C@H](c1ccccc1Cl)N(C(=O)[C@@H]1CCC(=O)N1c1nccc2ccccc12)c1cccc(F)c1` [Compound 16], the 50% inhibitory concentration (IC50) was in the range of 0.1 to 0.5 µM.

Regarding `COc1cccnc1N1C(=O)CC[C@H]1C(=O)N(c1cccc(F)c1)[C@H](C(=O)NC1CC(F)(F)C1)c1ccccc1Cl` [Compound 17], the concentration for half-maximal inhibition (IC50) lay in the range of 0.1 to 0.5 µM.

In a further assay the test system is U87MG cells. As to the kind of experiment: Cellular assay, inhibition of 2-HG production in U87MG cells. The format is cell-based. Particulars: 48 hours. As for the experimental part: Cells (HT1080 or U87MG) are grown in T125 flasks in DMEM containing 10% FBS, 1× penicillin/streptomycin and 500 ug/mL G418 (present in U87MG cells only). They are harvested by trypsin and seeded into 96 well white bottom plates at a density of 5000 cell/well in 100 ul/well in DMEM with 10% FBS. […] Cells are incubated overnight at 37° C. in 5% CO2. The next day test compounds are made up at 2× the final concentration and 100 ul are added to each cell well. The final concentration of DMSO is 0.2% and the DMSO control wells are plated in row G. The plates are then placed in the incubator for 48 hours. […] The cell plate is placed back in the incubator for another 24 hours. At 72 hours post compound addition, 10 mL/plate of Promega Cell Titer Glo reagent is thawed and mixed. The cell plate is removed from the incubator and allowed to equilibrate to room temperature. Then 100 ul of Promega Cell Titer Glo reagent is added to each well of media. The cell plate is then placed on an orbital shaker for 10 minutes and then allowed to sit at room temperature for 20 minutes. The plate is then read for luminescence with an integration time of 500 ms.
`N#Cc1cccc(N2C(=O)OC[C@H]2C(=O)N(c2cccc3cn[nH]c23)[C@H](C(=O)NC2CCC(F)(F)CC2)c2ccccc2Cl)c1` [Compound 142, (S)—N—((S)-1-(2-Chlorophenyl)-2-(4,4-difluorocyclohexylamino)-2-oxoethyl)-3-(3-cyanophenyl)-N-(1H-indazol-7-yl)-2-oxooxazolidine-4-carboxamide] returned a half-maximal inhibitory concentration (IC50) of under 0.1 µM. In turn, “(S)-1-(4-Cyanopyridin-2-yl)-N—((S)-1-(2,4-dichlorophenyl)-2-((3,3-difluorocyclobutyl)-amino)-2-oxoethyl)-N-(3,5-difluorophenyl)-5-oxopyrrolidine-2-carboxamide [Compound 196]” came in with an IC50 of under 0.1 µM. The same measure, in the same setting: the result for “(S)-tert-butyl 3-(((S)-1-(2-chlorophenyl)-2-((3,3-difluorocyclobutyl) amino)-2-oxoethyl)(3,5-difluorophenyl)carbamoyl)-5-oxopiperazine-1-carboxylate [Compound 97]” reads under 0.1 µM; that for “(S)—N—((S)-1-(2-Chlorophenyl)-2-(3,3-difluorocyclobutylamino)-2-oxoethyl)-1-(3-cyano-phenyl)-N-(1H-indazol-7-yl)-5-oxopyrrolidine-2-carboxamide [Compound 186]”, under 0.1 µM. Consider “(S)—N—((S)-1-(2-Chlorophenyl)-2-(3,3-difluorocyclobutylamino)-2-oxoethyl)-N-(3-cyano-5-fluorophenyl)-3-(3-cyanophenyl)-2-oxooxazolidine-4-carboxamide [Compound 134]”, for which the IC50 is under 0.1 µM. Compound “(S)—N—((S)-1-(2-Chlorophenyl)-2-((3,3-difluorocyclobutyl)amino)-2-oxoethyl)-1-(4-cyanopyridin-2-yl)-N-(1H-indazol-6-yl)-5-oxopyrrolidine-2-carboxamide [Compound 205]” registered a concentration for half-maximal inhibition (IC50) of under 0.1 µM. On to “(S)—N—((S)-1-(2-Chlorophenyl)-2-((4,4-difluorocyclohexyl)amino)-2-oxoethyl)-1-(4-cyanopyridin-2-yl)-N-(1H-indazol-6-yl)-5-oxopyrrolidine-2-carboxamide [Compound 136]”, for which the IC50 is under 0.1 µM.

Values taken from patent publication US9850277B2, “Therapeutically active compositions and their methods of use” (AGIOS PHARMACEUTICALS, INC, priority 2013, dated 2017).
